Assays:
[1] = tested on: neuroquinine A receptor (receptor NK-2); experiment: inhibition of NKA-induced contraction of isolated rabbit pulmonary artery; assay type: cell-based; settings: NKA 3 nM
Procedure: The capacity of the products described in the present invention to interact with the neuroquinine A receptor as agonists or antagonists was assessed using a preparation characterized by the fact that the biological response produced by tachyquinines and correlated peptides was exclusively determined by the neuroquinine A receptor (receptor NK-2). The said preparation consisted of isolated rabbit pulmonary artery affected by a dose-dependent contraction brought about by tachyquinines (Rovero et al., Neuropeptides, 13, 263-270, 1989). The determination of the peptide activity in the test preparation was based on the use of an NKA concentration (3 nM) causing a response equal to 45% of max. response. The peptides considered herein were added to the preparation in growing concentrations. Their activity was assessed as inhibition of response to NKA.

[2] = tested on: P substance receptor (receptor NK-1); experiment: inhibition of SP methyl ester-induced contraction of isolated guinea pig ileum; assay type: cell-based; design: dose or concentration left out as unconfirmed; settings: SP methyl ester 10 nm
Procedure: The capacity of the products described herein to interact with the P substance receptor (receptor NK-1) was assessed through an in vitro test, where the biological response produced by tachyquinines and correlated peptides was exclusively determined by the P substance receptor. The test preparation consisted of isolated guinea pig ileum affected by a dose-dependent contraction brought about by tachyquinines (Lee et al., Schmied. Arch. Pharmacol., 318, 281-287, 1982). The determination of the activity of the products as per the present invention in the test preparation was based on the use of an SP methyl ester concentration (10 nm) causing a response equal to 45% of max. response (S. Dion et al., Life Sci., 41, 2269-2278, 1987). The products considered herein were added to the preparation in growing concentrations. Their activity was assessed as inhibition of response to SP with satisfactory results.

In the case of cyclo(MDWFL) [compound 1], the “inhibition of response to neuroquinine A” value [1] is reported as 100% and the “inhibition of response to SP methyl ester” value [2] is reported as 100%.

From EP0636146B1, “TACHYKININ ANTAGONIST TRICYCLIC COMPOUNDS, PREPARATION OF SAME AND PHARMACEUTICAL COMPOSITIONS CONTAINING SUCH COMPOUNDS” (A. MENARINI INDUSTRIE FARMACEUTICHE RIUNITE S.R.L., priority 1992, dated 1997)
